Laboratory results reported in article PMC10756276, “Highly specific σ2R/TMEM97 ligand FEM-1689 alleviates neuropathic pain and inhibits the integrated stress response” (Proceedings of the National Academy of Sciences of the …, 2023).
Like-named read-outs stand apart in the source and are kept apart here.

Key:
[1] = target: 5HT1e (Homo sapiens, UniProt P28566); experiment: PDSP competitive binding assay; conditions: 10 µM test article; read-out: Ki: primary assay inhibition of radioligand binding, 5HT1e
5HT1e, sequence (P28566 whole entry): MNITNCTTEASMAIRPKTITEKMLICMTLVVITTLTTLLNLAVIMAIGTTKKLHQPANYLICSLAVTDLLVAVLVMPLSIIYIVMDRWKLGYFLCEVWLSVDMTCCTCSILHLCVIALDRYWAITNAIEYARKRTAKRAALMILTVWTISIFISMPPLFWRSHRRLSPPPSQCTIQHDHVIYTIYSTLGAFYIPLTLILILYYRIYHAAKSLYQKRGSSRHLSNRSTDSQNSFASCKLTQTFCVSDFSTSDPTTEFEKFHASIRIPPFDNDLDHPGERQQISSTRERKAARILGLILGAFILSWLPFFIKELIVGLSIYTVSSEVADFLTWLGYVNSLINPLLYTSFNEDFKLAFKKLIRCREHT

[2] = target: 5HT2A (Homo sapiens, UniProt P28223); experiment: PDSP competitive binding assay; conditions: 10 µM test article; read-out: Ki: primary assay inhibition of radioligand binding, 5HT2A
5HT2A, sequence (P28223 whole entry): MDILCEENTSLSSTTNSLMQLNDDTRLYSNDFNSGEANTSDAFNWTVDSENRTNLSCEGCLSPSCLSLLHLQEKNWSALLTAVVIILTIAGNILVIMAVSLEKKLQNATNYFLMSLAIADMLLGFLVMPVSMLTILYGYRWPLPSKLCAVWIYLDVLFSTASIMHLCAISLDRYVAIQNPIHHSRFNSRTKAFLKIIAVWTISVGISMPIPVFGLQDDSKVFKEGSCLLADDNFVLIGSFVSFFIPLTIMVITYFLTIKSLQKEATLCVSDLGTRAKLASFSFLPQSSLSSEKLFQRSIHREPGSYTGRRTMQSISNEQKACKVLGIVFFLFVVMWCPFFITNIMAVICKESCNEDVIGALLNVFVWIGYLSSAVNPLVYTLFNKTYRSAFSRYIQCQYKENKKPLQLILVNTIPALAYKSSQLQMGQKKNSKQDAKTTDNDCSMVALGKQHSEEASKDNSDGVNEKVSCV

[3] = target: 5HT3 (Homo sapiens, UniProt P46098); experiment: PDSP competitive binding assay; conditions: 10 µM test article; read-out: Ki: primary assay inhibition of radioligand binding, 5HT3
5HT3, sequence (P46098 24-478): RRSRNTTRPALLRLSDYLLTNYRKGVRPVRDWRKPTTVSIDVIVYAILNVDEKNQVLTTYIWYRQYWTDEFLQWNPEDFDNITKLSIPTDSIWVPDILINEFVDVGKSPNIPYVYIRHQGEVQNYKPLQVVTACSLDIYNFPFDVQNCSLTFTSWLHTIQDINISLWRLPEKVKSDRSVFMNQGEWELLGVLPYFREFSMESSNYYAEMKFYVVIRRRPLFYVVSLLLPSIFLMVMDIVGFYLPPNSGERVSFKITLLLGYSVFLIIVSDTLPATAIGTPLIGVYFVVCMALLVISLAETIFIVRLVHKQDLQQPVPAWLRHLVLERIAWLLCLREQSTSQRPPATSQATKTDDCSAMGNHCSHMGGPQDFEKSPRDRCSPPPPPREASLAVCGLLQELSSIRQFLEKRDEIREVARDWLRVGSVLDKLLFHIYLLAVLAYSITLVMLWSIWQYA

[4] = target: T1, Alpha2b (Homo sapiens, UniProt P18089); experiment: PDSP competitive binding assay; conditions: 10 µM test article; read-out: Ki: primary assay inhibition of radioligand binding, Alpha2b
T1 construct: purchased NIMH Psychoactive Drug Screening Program (PDSP), University of North Carolina at Chapel Hill
T1 sequence (P18089 whole entry): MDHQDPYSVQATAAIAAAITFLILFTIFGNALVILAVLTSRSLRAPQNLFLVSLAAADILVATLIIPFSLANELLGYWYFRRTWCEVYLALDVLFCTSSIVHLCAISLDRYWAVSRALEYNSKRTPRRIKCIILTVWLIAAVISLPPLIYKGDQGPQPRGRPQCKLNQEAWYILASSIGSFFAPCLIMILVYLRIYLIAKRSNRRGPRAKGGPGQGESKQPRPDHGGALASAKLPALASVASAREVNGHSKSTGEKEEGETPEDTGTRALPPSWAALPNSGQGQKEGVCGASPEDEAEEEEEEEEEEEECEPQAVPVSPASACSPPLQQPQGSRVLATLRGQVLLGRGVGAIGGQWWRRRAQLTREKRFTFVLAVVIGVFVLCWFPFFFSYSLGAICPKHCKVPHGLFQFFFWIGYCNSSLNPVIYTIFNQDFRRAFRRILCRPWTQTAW

[5] = target: T2, SERT (Homo sapiens, UniProt P31645); experiment: PDSP competitive binding assay; conditions: 10 µM test article; read-out: Ki: primary assay inhibition of radioligand binding, SERT
T2 construct: purchased NIMH Psychoactive Drug Screening Program (PDSP), University of North Carolina at Chapel Hill
T2 sequence (P31645 whole entry): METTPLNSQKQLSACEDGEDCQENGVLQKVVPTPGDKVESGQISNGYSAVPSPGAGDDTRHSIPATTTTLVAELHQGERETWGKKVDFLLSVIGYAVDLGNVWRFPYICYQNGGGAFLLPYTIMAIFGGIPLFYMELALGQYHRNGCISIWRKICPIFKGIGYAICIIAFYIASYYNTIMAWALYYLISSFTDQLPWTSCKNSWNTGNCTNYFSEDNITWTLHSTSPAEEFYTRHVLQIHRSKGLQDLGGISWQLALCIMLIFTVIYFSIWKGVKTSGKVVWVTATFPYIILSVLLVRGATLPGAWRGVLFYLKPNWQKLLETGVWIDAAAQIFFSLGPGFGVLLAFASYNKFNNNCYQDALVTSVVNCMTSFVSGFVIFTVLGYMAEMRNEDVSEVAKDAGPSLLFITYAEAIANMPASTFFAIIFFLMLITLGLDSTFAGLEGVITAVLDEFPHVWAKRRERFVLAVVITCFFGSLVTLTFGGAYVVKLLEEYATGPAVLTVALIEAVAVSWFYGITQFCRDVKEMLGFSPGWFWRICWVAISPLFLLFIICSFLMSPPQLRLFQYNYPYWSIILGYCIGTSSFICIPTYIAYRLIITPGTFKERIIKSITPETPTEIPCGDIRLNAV

[6] = target: M2 (Homo sapiens, UniProt P08172); experiment: PDSP competitive binding assay; conditions: 10 µM test article; read-out: Ki: primary assay inhibition of radioligand binding, M2
M2, sequence (P08172 whole entry): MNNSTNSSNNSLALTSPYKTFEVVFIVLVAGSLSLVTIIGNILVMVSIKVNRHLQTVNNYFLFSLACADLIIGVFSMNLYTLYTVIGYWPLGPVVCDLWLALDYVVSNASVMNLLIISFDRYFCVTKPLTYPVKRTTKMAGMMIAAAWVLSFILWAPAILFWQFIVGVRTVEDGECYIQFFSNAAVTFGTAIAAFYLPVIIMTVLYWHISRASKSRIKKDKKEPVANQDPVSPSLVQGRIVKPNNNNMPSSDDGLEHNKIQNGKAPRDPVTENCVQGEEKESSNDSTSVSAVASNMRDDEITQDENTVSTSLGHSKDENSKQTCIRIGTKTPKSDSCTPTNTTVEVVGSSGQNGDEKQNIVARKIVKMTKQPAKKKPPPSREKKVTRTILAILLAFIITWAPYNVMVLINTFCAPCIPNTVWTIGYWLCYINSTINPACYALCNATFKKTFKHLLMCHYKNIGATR

[7] = target: T3, M3 (Homo sapiens, UniProt P20309); experiment: PDSP competitive binding assay; conditions: 10 µM test article; read-out: Ki: primary assay inhibition of radioligand binding, M3
T3 construct: purchased NIMH Psychoactive Drug Screening Program (PDSP), University of North Carolina at Chapel Hill
T3 sequence (P20309 whole entry): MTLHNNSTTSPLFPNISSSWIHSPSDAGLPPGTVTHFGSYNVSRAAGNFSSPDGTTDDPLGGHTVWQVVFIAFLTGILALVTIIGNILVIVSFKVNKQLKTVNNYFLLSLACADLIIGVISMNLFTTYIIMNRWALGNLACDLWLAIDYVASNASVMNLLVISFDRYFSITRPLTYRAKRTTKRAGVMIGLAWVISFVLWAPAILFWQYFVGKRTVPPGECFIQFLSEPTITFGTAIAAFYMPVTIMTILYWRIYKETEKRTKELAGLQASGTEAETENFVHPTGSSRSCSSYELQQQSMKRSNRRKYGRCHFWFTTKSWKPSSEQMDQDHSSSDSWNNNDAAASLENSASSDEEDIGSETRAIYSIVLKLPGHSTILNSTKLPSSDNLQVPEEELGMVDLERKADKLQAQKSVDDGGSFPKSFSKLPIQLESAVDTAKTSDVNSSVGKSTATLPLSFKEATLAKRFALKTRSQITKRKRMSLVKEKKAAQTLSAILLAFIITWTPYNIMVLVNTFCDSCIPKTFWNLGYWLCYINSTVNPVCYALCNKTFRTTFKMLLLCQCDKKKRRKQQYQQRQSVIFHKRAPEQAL

[8] = target: T4, M5 (Homo sapiens, UniProt P08912); experiment: PDSP competitive binding assay; conditions: 10 µM test article; read-out: Ki: primary assay inhibition of radioligand binding, M5
T4 construct: purchased NIMH Psychoactive Drug Screening Program (PDSP), University of North Carolina at Chapel Hill
T4 sequence (P08912 whole entry): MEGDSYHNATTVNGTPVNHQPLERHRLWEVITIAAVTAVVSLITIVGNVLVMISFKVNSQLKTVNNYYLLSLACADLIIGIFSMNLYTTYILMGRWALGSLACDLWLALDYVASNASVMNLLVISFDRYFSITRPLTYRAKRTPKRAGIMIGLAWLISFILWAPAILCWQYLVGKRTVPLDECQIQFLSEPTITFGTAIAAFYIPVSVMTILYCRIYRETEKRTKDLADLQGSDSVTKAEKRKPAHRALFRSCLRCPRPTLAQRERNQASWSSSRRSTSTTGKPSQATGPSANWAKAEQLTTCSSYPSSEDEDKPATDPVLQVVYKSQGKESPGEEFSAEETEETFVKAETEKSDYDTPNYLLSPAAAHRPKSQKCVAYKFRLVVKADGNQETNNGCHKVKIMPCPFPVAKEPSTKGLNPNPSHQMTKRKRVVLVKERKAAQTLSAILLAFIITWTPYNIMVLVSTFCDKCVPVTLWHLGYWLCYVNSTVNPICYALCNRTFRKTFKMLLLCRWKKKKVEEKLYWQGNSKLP

[9] = target: MOR (Homo sapiens, UniProt P35372); experiment: PDSP competitive binding assay; conditions: 10 µM test article; read-out: Ki: primary assay inhibition of radioligand binding, MOR
MOR, sequence (P35372 whole entry): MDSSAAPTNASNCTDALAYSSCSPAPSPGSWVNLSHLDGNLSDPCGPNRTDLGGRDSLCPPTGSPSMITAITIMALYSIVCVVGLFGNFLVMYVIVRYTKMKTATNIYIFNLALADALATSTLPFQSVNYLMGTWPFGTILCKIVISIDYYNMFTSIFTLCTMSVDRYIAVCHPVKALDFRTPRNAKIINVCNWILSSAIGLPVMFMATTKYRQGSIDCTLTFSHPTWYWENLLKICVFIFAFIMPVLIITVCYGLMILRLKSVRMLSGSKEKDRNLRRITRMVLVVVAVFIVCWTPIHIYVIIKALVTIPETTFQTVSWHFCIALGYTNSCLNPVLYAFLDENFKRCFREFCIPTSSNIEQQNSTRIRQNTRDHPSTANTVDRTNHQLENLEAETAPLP

[10] = tested on: p-eIF2α in HEK293T cells; experiment: p-eIF2α ICC and spectrophotometry in HEK293T cells; format: cell-based, human
Method: The ICC protocol was based on a previously published protocol ([76]). […] Cells were blocked with 10% normal goat serum (NGS) in PBS-triton X (0.1%). […] Antibodies were incubated at 4 °C overnight. […] It was washed with PBS twice. […] Images were analyzed using Olympus CellSens. […] Number of cells analyzed are detailed in SI Appendix, Tables S3 and S4.
Human embryonic kidney (HEK) 293 T cells (ATCC # CRL-3216) were generously donated by the Campbell Lab (UT Dallas). Cells were grown at 37 °C with 5% CO2 in complete medium (10% FBS, 1% Pen-Strep in DMEM/F12 + GlutaMax (Gibco #10565-018) in T-75 flasks (Greiner Bio-One #658175). In a 96-well plate (ThermoFisher #165305), cells were plated at a density of 20,000 cells per well and grown to roughly 65% confluency before being treated with FEM-1689. For 2-h FEM-1689 treatment, HEK cells were plated at a density of 32,000 cells per well and treated at roughly 85% confluency. Three to five replicates were made per condition/dose (1/2 log steps ranging from 0.1 to 1,000 nM). ICC was performed to label p-eIF2α and DAPI. Immunofluorescence of HEK cells was quantified using the Synergy HTX Multimode Reader. For further details regarding the culturing of HEK cells, see SI Appendix. […]
Huma n e mbryon ic kidn ey (HEK) 293T ce lls (ATCC # C RL- 321 6) were ge nerously dona ted by th e Ca mpb ell Lab (UT Dallas). Cell stock s were previously fr ozen at 1 million cells/ml in 90% fetal bov ine s erum (F BS, ThermoFisher #SH300880340) and 10% DMSO. Cells were grown in complete medium (10% FBS, 1% Pen- Strep in DMEM/F12 + GlutaMax (Gibco #10565- 018) in T-75 flasks (Greiner Bio- One #658175). Cells were maintained at 37 °C with 5% CO2 and passaged twice before being plated onto either 96-well or 6-well plates for ICC/spectrophotometry and western blotting, respectively. Cells were counted using the TC20 automated cell counter (Bio- R ad #1450102) using a 1:1 dilution of trypan blue (Gibco #15250061).
In a 9 6-well p lat e (Therm oFisher #16 530 5), cells were p late d at a de nsity of 20,0 00 cells per w ell a nd gro wn to rou gh ly 65 % conf lu ency before be in g tre ate d w ith F EM- 16 89. For 2 h our F EM- 1689 trea tme nt, HEK ce lls were plated at a density of 32,000 cells per well and treated at roughly 85% confluency. […] Immunofluorescence of HEK cells was quantif ied using the Synergy HTX Multimode Reader. […] Wells were topped with 100 µL of 1X PBS prior to being read. DAPI and p -eIF2α reads were performed at bottom with a gain of 3 5 a nd 45, r espective ly. […]
fluorescence units (RFUs) of the negative controls were subtracted from each well. P-eIF2α fluorescence was normalized to DAPI in order to control for the number of cells present in the well and then to the fluoresce nce of th e veh icle t reatme nt as a p ercenta ge. […]

[11] = target: σ1R (Homo sapiens, UniProt Q99720); experiment: Competition binding with [3H]-(+)-pentazocine (NIMH PDSP)
σ1R, sequence (Q99720 whole entry): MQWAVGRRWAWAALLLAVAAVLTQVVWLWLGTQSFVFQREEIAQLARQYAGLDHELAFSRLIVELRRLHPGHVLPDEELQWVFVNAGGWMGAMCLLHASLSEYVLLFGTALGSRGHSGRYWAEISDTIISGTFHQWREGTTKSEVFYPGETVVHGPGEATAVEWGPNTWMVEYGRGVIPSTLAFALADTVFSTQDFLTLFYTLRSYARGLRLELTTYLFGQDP

## OCCCN1CC[C@@H]2C[C@H]1c1cc(-c3ccc(C(F)(F)F)cc3)ccc12 [FEM-1689]
[1]
  inhibition at 10 µM: < 50%
[2]
  inhibition at 10 µM: < 50%
[3]
  inhibition at 10 µM: < 50%
[4]
  inhibition at 10 µM: < 50%
[5]
  inhibition at 10 µM: < 50%
[6]
  inhibition at 10 µM: < 50%
[7]
  inhibition at 10 µM: < 50%
[8]
  inhibition at 10 µM: < 50%
[9]
  inhibition at 10 µM: < 50%
[10]; 2 h treatment
  IC50: 5.89 nM
[10]; 16 h treatment
  IC50: 0.74 nM
[10]; Homo sapiens, HEK-293T, 2 h, 2 h treatment
  IC50: 5.9 nM
[10]; Homo sapiens, HEK-293T, 16 h, 16 h treatment
  IC50: 0.7 nM
[11]
  Ki: 206 nM
[11]; ratio of Ki
  selectivity for σ2R/TMEM97 vs σ1R: 10 fold
[11]; read-out: σ1R Ki, averages ± SD
  Ki: 167 ± 54 nM
